# According to patent publication US7378413B2, “2-amino-3-(alkyl)-pyrimidone derivatives” (Sanofi Aventis, priority 2000, dated 2008):
# Structures can show the parent of a compound that is named as a salt.
row,melting point,Compound
1,114 to 116 °C,CCCCCCCCNc1nc(-c2ccncc2)cc(=O)n1C
2,193 to 197 °C,Cn1c(NCc2cccc(CN)c2)nc(-c2ccncc2)cc1=O (as salt: hydrochloride)
3,142 to 143 °C,NCCCCCCNc1nc(-c2ccncc2)cc(=O)n1CCCc1ccccc1 (as salt: hydrochloride)
4,225 to 228 °C,NCCCCCCNc1nc(-c2ccncc2)cc(=O)n1CCc1ccccc1 (as salt: hydrochloride)
5,192 to 195 °C,NCCCCCCn1c(NCCCc2ccccc2)nc(-c2ccncc2)cc1=O (as salt: hydrochloride)
6,125 to 127 °C,NCCCCCCn1c(NCCc2ccccc2)nc(-c2ccncc2)cc1=O (as salt: hydrochloride)
7,212 to 215 °C,CN(C)CCn1c(NCCCc2ccccc2)nc(-c2ccncc2)cc1=O (as salt: hydrochloride)
8,292 to 298 °C,NCCCCCCNc1nc(-c2ccncc2)cc(=O)n1Cc1ccccc1 (as salt: hydrochloride)
9,193 to 196 °C,"Cn1c(NCc2cccc(OCCCN)c2)nc(-c2ccncc2)cc1=O (as salt: hydrochloride) [Compound 26, 2-[[[3-(3-aminopropoxy)phenyl]methyl]amino]-3-methyl-6-pyridin-4-ylpyrimidin-4(3H)-one]"
10,259 to 262 °C,"Cn1c(NCCCCCN)nc(-c2ccncc2)cc1=O (as salt: hydrochloride) [Compound 40, 2-(5-Amino-pentylamino)-3-methyl-6-pyridin-4-yl-3H-pyrimidin-4-one]"
11,134 to 136 °C,"NCCCCNc1nc(-c2ccncc2)cc(=O)n1CCCc1ccccc1 (as salt: hydrochloride) [Compound 41, 2-(4-Amino-butylamino)-3-(3-phenyl-propyl)-6-pyridin-4-yl-3H-pyrimidin-4-one]"
12,235 to 238 °C,"NCCCCCNc1nc(-c2ccncc2)cc(=O)n1CCc1ccccc1 (as salt: hydrochloride) [Compound 43, 2-(5-Amino-pentylamino)-3-phenethyl-6-pyridin-4-yl-3H-pyrimidin-4-one]"
13,246 to 248 °C,"NCCCCNc1nc(-c2ccncc2)cc(=O)n1CCc1ccccc1 (as salt: hydrochloride) [Compound 45, 2-(4-Amino-butylamino)-3-phenethyl-6-pyridin-4-yl-3H-pyrimidin-4-one]"
14,162 to 164 °C,"CCCCCCCCCCNc1nc(-c2ccncc2)cc(=O)n1C (as salt: hydrochloride) [Compound 53, 2-Decylamino-3-methyl-6-pyridin-4-yl-3H-pyrimidin-4-one]"
15,188 to 191 °C,"CN(CCCC1CCCCC1)c1nc(-c2ccncc2)cc(=O)n1C (as salt: hydrochloride) [Compound 68, 2-[(3-Cyclohexyl-propyl)-methyl-amino]-3-methyl-6-pyridin-4-yl-3H-pyrimidin-4-one]"
16,225 to 232 °C,"Cn1c(NCc2cccc(OCCC3CCNCC3)c2)nc(-c2ccncc2)cc1=O (as salt: hydrochloride) [Compound 72, 3-methyl-2-[3-(2-piperidin-4-yl-ethoxy)-benzylamino]-6-pyridin-4-yl-3H-pyrimidin-4-one]"
17,157 to 160 °C,"CNCc1ccc(CCN(C)c2nc(-c3ccncc3)cc(=O)n2C)cc1 (as salt: hydrochloride) [Compound 75, 3-Methyl-2-{methyl-[2-(4-methylaminomethyl-phenyl)-ethyl]-amino}-6-pyridin-4-yl-3H-pyrimidin-4-one]"
18,185 to 189 °C,"Cn1c(N(CCCN)CCCc2ccccc2)nc(-c2ccncc2)cc1=O (as salt: hydrochloride) [Compound 77, 2-[(3-Amino-propyl)-(3-phenyl-propyl)-amino]-3-methyl-6-pyridin-4-yl-3H-pyrimidin-4-one]"
19,123 to 126 °C,"NCCCCCn1c(NCCCc2ccccc2)nc(-c2ccncc2)cc1=O (as salt: hydrochloride) [Compound 79, 3-(5-Amino-pentyl)-2-(3-phenyl-propylamino)-6-pyridin-4-yl-3H-pyrimidin-4-one]"
20,124 to 127 °C,"NCCCCn1c(NCCCc2ccccc2)nc(-c2ccncc2)cc1=O (as salt: hydrochloride) [Compound 80, 3-(4-Amino-butyl)-2-(3-phenyl-propylamino)-6-pyridin-4-yl-3H-pyrimidin-4-one]"
21,210 to 213 °C,"Cn1c(NCc2cccc(OCCCc3ccncc3)c2)nc(-c2ccncc2)cc1=O (as salt: hydrochloride) [Compound 81, 3-Methyl-6-pyridin-4-yl-2-[3-(3-pyridin-4-yl-propoxy)-benzylamino]-3H-pyrimidin-4-one]"
22,145 to 148 °C,"NCCn1c(NCCCc2ccccc2)nc(-c2ccncc2)cc1=O (as salt: hydrochloride) [Compound 84, 3-(2-Amino-ethyl)-2-(3-phenyl-propylamino)-6-pyridin-4-yl-3H-pyrimidin-4-one]"

row,melting point,Compound
1,198 to 201 °C,"COc1ccccc1CCNc1nc(-c2ccncc2)cc(=O)n1CCCN (as salt: hydrochloride) [Compound 85, 3-(3-Amino-propyl)-2-[2-(2-methoxy-phenyl)-ethylamino]-6-pyridin-4-yl-3H-pyrimidin-4-one]"
2,178 to 180 °C,"NCCCCCn1c(NCCc2ccccc2)nc(-c2ccncc2)cc1=O (as salt: hydrochloride) [Compound 88, 3-(5-Amino-pentyl)-2-phenethylamino-6-pyridin-4-yl-3H-pyrimidin-4-one]"
3,170 to 175 °C,"NCCCCn1c(NCCc2ccccc2)nc(-c2ccncc2)cc1=O (as salt: hydrochloride) [Compound 89, 3-(4-Amino-butyl)-2-phenethylamino-6-pyridin-4-yl-3H-pyrimidin-4-one]"
4,163 to 168 °C (dec.),"NCCCCNc1nc(-c2ccncc2)cc(=O)n1Cc1ccccc1 (as salt: hydrochloride) [Compound 90, 2-(4-Amino-butylamino)-3-benzyl-6-pyridin-4-yl-3H-pyrimidin-4-one]"
5,198 to 200 °C,"Cn1c(NCC=Cc2ccccc2)nc(-c2ccncc2)cc1=O (as salt: hydrochloride) [Compound 95, 3-Methyl-2-(3-phenyl-allylamino)-6-pyridin-4-yl-3 H-pyrimidin-4-one]"
6,187 to 189 °C,"Cn1c(NCCCc2ccccc2)nc(-c2ccncc2)cc1=O (as salt: hydrochloride) [Compound 96, 3-Methyl-2-(3-phenyl-propylamino)-6-pyridin-4-yl-3H-pyrimidin-4-one]"
7,217 to 218 °C,"Cn1c(NCCc2c[nH]c3ccccc23)nc(-c2ccncc2)cc1=O (as salt: oxalate) [Compound 29, 2-[[2-(1H-indol-3-yl)ethyl]amino]-3-methyl-6-pyridin-4-ylpyrimidin-4(3H)-one]"
8,239 to 241 °C,"CCNc1nc(-c2ccncc2)cc(=O)n1C (as salt: oxalate) [Compound 36, 2-(ethylamino)-3-methyl-6-pyridin-4-ylpyrimidin-4(3H)-one]"
9,228 to 230 °C,"Cn1c(N2CCCCC2)nc(-c2ccncc2)cc1=O (as salt: tartrate) [Compound 38, 2-(piperidin-1-yl)-3-methyl-6-pyridin-4-ylpyrimidin-4(3H)-one]"
10,149.2 to 149.5 °C,"COc1ccccc1CCNc1nc(-c2ccncc2)cc(=O)n1C [Compound 4, 2-[[2-(2-methoxyphenyl)ethyl]amino]-3-methyl-6-pyridin-4-ylpyrimidin-4(3H)-one]"
11,184 to 187.2 °C,"Cn1c(NCCc2ccccc2F)nc(-c2ccncc2)cc1=O [Compound 5, 2-[[2-(2-fluorophenyl)ethyl]amino]-3-methyl-6-pyridin-4-ylpyrimidin-4(3H)-one]"
12,158.9 to 159.2 °C,"Cn1c(NCCc2cccc(F)c2)nc(-c2ccncc2)cc1=O [Compound 6, 2-[[2-(3-fluorophenyl)ethyl]amino]-3-methyl-6-pyridin-4-ylpyrimidin-4(3H)-one]"
13,178.8 to 178.9 °C,"Cn1c(NCCc2ccc(F)cc2)nc(-c2ccncc2)cc1=O [Compound 7, 2-[[2-(4-fluorophenyl)ethyl]amino]-3-methyl-6-pyridin-4-ylpyrimidin-4(3H)-one]"
14,175.2 to 175.4 °C,"Cn1c(NCCc2ccccc2Cl)nc(-c2ccncc2)cc1=O [Compound 9, 2-[[2-(2-chlorophenyl)ethyl]amino]-3-methyl-6-pyridin-4-ylpyrimidin-4(3H)-one]"
15,197.3 to 197.5 °C,"Cn1c(NCCc2ccc(N)cc2)nc(-c2ccncc2)cc1=O [Compound 11, 2-[[2-(4-aminophenyl)ethyl]amino]-3-methyl-6-pyridin-4-ylpyrimidin-4(3H)-one]"
16,187 to 187.1 °C,"COc1ccc(CCNc2nc(-c3ccncc3)cc(=O)n2C)cc1OC [Compound 12, 2-[[2-(3,4-dimethoxyphenyl)ethyl]amino]-3-methyl-6-pyridin-4-ylpyrimidin-4(3H)-one]"
17,180.9 to 181.3 °C,"COc1ccc(OC)c(CCNc2nc(-c3ccncc3)cc(=O)n2C)c1 [Compound 13, 2-[[2-(2,5-dimethoxyphenyl)ethyl]amino]-3-methyl-6-pyridin-4-ylpyrimidin-4(3H)-one]"
18,165.3 to 165.5 °C,"Cn1c(NCCc2ccc(Cl)cc2)nc(-c2ccncc2)cc1=O [Compound 14, 2-[[2-(4-chlorophenyl)ethyl]amino]-3-methyl-6-pyridin-4-ylpyrimidin-4(3H)-one]"
19,257.4 to 257.9 °C,"Cn1c(NCCc2ccc(O)cc2)nc(-c2ccncc2)cc1=O [Compound 15, 2-[[2-(4-hydroxyphenyl)ethyl]amino]-3-methyl-6-pyridin-4-ylpyrimidin-4(3H)-one]"
20,184.7 to 185 °C,"Cc1ccc(CCNc2nc(-c3ccncc3)cc(=O)n2C)cc1 [Compound 16, 2-[[2-(4-methylphenyl)ethyl]amino]-3-methyl-6-pyridin-4-ylpyrimidin-4(3H)-one]"
21,162.8 to 163 °C,"Cn1c(NCCc2cccc(Cl)c2)nc(-c2ccncc2)cc1=O [Compound 18, 2-[[2-(3-chlorophenyl)ethyl]amino]-3-methyl-6-pyridin-4-ylpyrimidin-4(3H)-one]"
